Data from patent US20240294478A1, “ANTI-CANCER COMPOUNDS AND METHODS OF USE” (YALE UNIVERSITY, priority 2021, published 2024).
Where two headings read alike, the source gives them in different places.

Columns and labels:
Type in all cases: cell-based, human
LN229 MGMT−/MMR+ cells = test: Short-term cell viability assay, LN229 MGMT-/MMR+; details: for IC50: Homo sapiens, read-out: IC50 against LN229 cell lines, MGMT− MMR+; for MGMT− TI: Table III
Protocol: LN229 MGMT- and MGMT+ cell lines were a gift from B. Kaina (Johannes Gutenberg University Mainz, Mainz, Germany) and grown in Gibco® Duilbecco's Modified Eagle Medium with 10% fetal bovine serum (DMEM). For each compound tested, the relationship between MGMT status and MMR status and compound activity, in terms of IC50 values ([…]), was determined by the following method. On day 1, LN229 isogenic cells of varying MGMT and MMR status were seeded in 96 well format at a density of 2000 cells/well in 100 μL of DMEM media and allowed to adhere overnight. On day 2, a drug master plate was made with 100×the desired maximal concentration of test compound and serially diluted by 2 until 100×the minimal desired concentration, with one DMSO control. Then daughter plates were created with varied concentrations from 3-times the minimal concentration to 3-times the maximal desired concentration. Afterwards, 50 μL of daughter drug plate was added to 100 μL of the seeded cells for a final concentration of 1×in triplicate. Cells were allowed to grow for 6 days. On day 7, the cells were fixed, and stained with Hoechst nuclear dye and imaged to determine growth inhibition.
For each compound tested, the relationship between MGMT status and MMR status and compound activity, in terms of IC50 values (in μM), was determined. In addition, for each compound, the therapeutic index (TI) was calculated, according to the equation MGMT TI=IC50 (MGMT+/MMR+) divided by IC50 (MGMT−/MMR+). The T1 indicates the efficacy of a compound in treating the targeted MGMT-cancer cells as compared to potential for the same compound to damage, or have adverse effects against, normal cells which are MGMT+cells, The higher the value of the TI, the safer the compound is. […] MMR RI (resistance index)=IC50 (MGMT−/MMR−) divided by IC50 (MGMT−/MMR+). The higher the value of the RI, the less likely that resistance to the compound will develop.
(§1) Short-term Cell Viability Assay. Cells were seeded in 96-well plates at 1000 or 2000 cells/well and allowed to adhere at 23° C. for 60 min and then incubated overnight at 37° C. Cells were treated with indicated concentrations of compounds in triplicate for 4-6 days prior to fixation with 3.7% paraformaldehyde and nuclear staining with 1 μg/mL Hoechst 33342 dye. Cells were imaged on a Cytation 3 imaging reader (BioTek) and quantified using CellProfiler software. For in vitro short-term growth delay experiments, IC50 values were determined from the nonlinear regression equation, [inhibitor] vs normalized response with variable slope.

LN229 MGMT− shPMS2 cells = test: Short-term viability assay, LN229 MGMT- shPMS2; details: for IC50: Homo sapiens, LN-229, Table III, read-out: IC50 against LN229 cell lines, MGMT− MMR−; for MGMT− RI: Table III
Protocol: (§2) The activity of KL-50 in MGMT-LN229 cells engineered to lack expression of other key MMR proteins including MSH6, MLH1, PMS2, and MSH3 was also confirmed. Western blotting was performed in LN229 MGMT+/−cells with stable expression of shRNA targeting MSH6, MLH1, PMS2, or MSH3 to confirm depletion of the shRNA targets. In shMSH6 cells, there was reduced expression of MSH2, and in shMLH1 cells, there was loss of PMS2, due to destabilization in the setting of loss of their heterodimeric partners. GAPDH serves as loading control. […] Short-term viability assay curves for KL-50 in LN229 MGMT+/−, MMR+/shMSH6 cells. […] Short-term viability assay curves for KL-50 in LN229 MGMT+/−, MMR+/shMLH1 cells. […] Short-term viability assay curves for KL-50 in LN229 MGMT+/−, MMR+/shPMS2 cells. […] Short-term viability assay curves for KL-50 in LN229 MGMT+/−, MMR+/shMSH3 cells.
(§3) MMR Protein shRNA Knockdown. pGIPZ lentiviral shRNA vectors targeting MSH2, MSH6, MLH1, PMS2, and MSH3 were purchased from Horizon Discovery (Table IV). Lentiviral particles were produced in HEK293T cells via co-transfection with lentiviral shRNA plasmid, pCMV-VSV-G envelope plasmid (Addgene, #8454) and psPAX2 packaging plasmid (Addgene, #12260), using Lipofectamine 3000 Reagent (Invitrogen, L3000001) per manufacturer's protocol. Viral particles were harvested 48 h post-transfection and used to transduce LN229 MGMT+/−cells in the presence of 8 μg/mL polybrene. Selection of pooled cells with lentiviral expression was established with 1 μg/mL puromycin 48 h post-transduction for 3 to 4 days. Single cell cloning was performed by limiting dilution and protein knockdown was confirmed by western blotting.
as §1

LN229 MGMT− shMSH3 cells = test: Short-term viability assay, LN229 MGMT- shMSH3; details: for IC50: Homo sapiens, LN-229, Table III, read-out: IC50 against LN229 cell lines, MGMT− MMR−; for MGMT− RI: Table III
Protocol: as §2, §3, §1

NC(=O)c1ncn2c(=O)n(CCF)nnc12 [KL-50]
IC50 (LN229 MGMT−/MMR+ cells; LN-229, Table III, shRNA None): 13.2 ± 0.8 µM | IC50 (LN229 MGMT−/MMR+ cells; LN-229, Table II): 24.7 ± 4.1 µM | TI / RI, in words (LN229 MGMT−/MMR+ cells; LN229 isogenic lines): superior TI and RI | MGMT− TI (therapeutic index) (LN229 MGMT−/MMR+ cells; Table II, IC50 (MGMT+/MMR+) divided by IC50 (MGMT−/MMR+)): 24 | MGMT− TI (LN229 MGMT−/MMR+ cells; shRNA None): 22 | IC50 (LN229 MGMT− shPMS2 cells): 5.4 ± 0.3 µM | MGMT− RI (LN229 MGMT− shPMS2 cells): 0.4 | IC50 (LN229 MGMT− shMSH3 cells): 7.9 ± 0.3 µM | MGMT− RI (LN229 MGMT− shMSH3 cells): 0.6

Cn1nnc2c(C(N)=O)ncn2c1=O [TMZ, 4-methyl-5-oxo-2,3,4,6,8-pentazabicyclo[4.3.0]nona-2,7,9-triene-9-carboxamide, reference compound]
IC50 (LN229 MGMT−/MMR+ cells; LN-229, 144 h, Table 1, 6 days growth): 8.3 ± 3.5 µM | IC50 (LN229 MGMT−/MMR+ cells; LN-229, Table III, shRNA None): 5.1 ± 0.8 µM | IC50 (LN229 MGMT−/MMR+ cells; LN-229, Table II): 8.3 ± 3.5 µM | MGMT− TI (LN229 MGMT−/MMR+ cells; shRNA None): 137 | IC50 (LN229 MGMT− shPMS2 cells): 921 ± 190 µM | MGMT− RI (LN229 MGMT− shPMS2 cells): 181 | IC50 (LN229 MGMT− shMSH3 cells): 3.1 ± 0.6 µM | MGMT− RI (LN229 MGMT− shMSH3 cells): 0.6
